Experimental data published in US20220323406A1, “METHODS AND COMPOSITIONS FOR DIFFERENTIATING STEM CELLS” (Massachusetts Institute of Technology, priority 2019, published 2022).

Key:
[1] = system: ENR+CD organoids (ISC to Paneth cell differentiation); assay: Primary screen: basal (non-stimulated) lysozyme secretion LYZ.NS, 2.5-D 384-well ENR+CD organoid differentiation; assay type: cell-based, mouse; conditions: primary screen; for Z.LYZ.NS: standard z score
From the text: (§1) High-throughput screening.

ENR+CD organoids = assay: Primary screen: ATP (CellTiter-Glo 3D, CTG) cell number/viability, 2.5-D 384-well ENR+CD organoids; conditions: primary screen; for Z.CTG: standard z score;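 as to all read-outs here: compounds given at plating and again on day 3 over a 6-day differentiation from ENR+CV stem-cell-enriched precursors, ATP measured on day 6, plate median as control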
[2] = system: ENR+CD organoids (ISC to Paneth cell differentiation); assay: Primary screen: CCh-stimulated lysozyme secretion LYZ.S, 2.5-D 384-well ENR+CD organoid differentiation; assay type: cell-based, mouse; conditions: primary screen
From the text: as §1

[3] = dose 0.08 uM, FC vs plate median
[4] = dose 0.40 uM, FC vs plate median
[5] = dose 2.00 uM, FC vs plate median
[6] = dose 10.00 uM, FC vs plate median
[7] = dose 10.00 uM, FC relative to plate median

Compound | Z.LYZ.NS ([1]; dose 0.08 uM) | Z.LYZ.NS ([1]; dose 0.40 uM) | Z.LYZ.NS ([1]; dose 2.00 uM) | Z.LYZ.NS ([1]; dose 10.00 uM) | Dose.FC.LYZ.NS [1, 3] [log2 fold change] | Dose.FC.LYZ.NS [1, 4] [log2 fold change] | Dose.FC.LYZ.NS [1, 5] [log2 fold change] | Dose.FC.LYZ.NS [1, 6] [log2 fold change] | Z.CTG (ENR+CD organoids; dose 0.08 uM) | Z.CTG (ENR+CD organoids; dose 0.40 uM) | Z.CTG (ENR+CD organoids; dose 2.00 uM) | Z.CTG (ENR+CD organoids; dose 10.00 uM) | Dose.FC.CTG (ENR+CD organoids; [3]) [log2 fold change] | Dose.FC.CTG (ENR+CD organoids; [4]) [log2 fold change] | Dose.FC.CTG (ENR+CD organoids; [5]) [log2 fold change] | Dose.FC.CTG (ENR+CD organoids; [6]) [log2 fold change] | Dose.FC.LYZ.S [2, 3] [log2 fold change] | Dose.FC.LYZ.S [2, 4] [log2 fold change] | Dose.FC.LYZ.S [2, 5] [log2 fold change] | Dose.FC.LYZ.S [2, 6] [log2 fold change] | other results
O=C(NOCC1CC1)c1ccc(F)c(F)c1Nc1ccc(I)cc1Cl [PD184352 (CI-1040)] | −0.162 | −0.458 | −1.176 | −1.011 | −0.019 | −0.053 | −0.135 | −0.116 | 0.874 | 0.624 | −0.506 | −1.901 | 0.366 | 0.261 | −0.212 | −0.796 | −0.019 | −0.047 | −0.178 | −0.239 | –
O=C(NOC[C@H](O)CO)c1ccc(F)c(F)c1Nc1ccc(I)cc1F [PD0325901] | −1.046 | −1.064 | −1.215 | −1.625 | −0.120 | −0.122 | −0.139 | −0.187 | – | – | – | – | −0.502 | −1.155 | −0.867 | −0.963 | −0.212 | −0.219 | −0.227 | −0.269 | –
O=C(Nc1cccnc1)N1CCC(Cc2cccc(Oc3ccc(C(F)(F)F)cn3)c2)CC1 [PF-3845] | 0.532 | −0.668 | −0.131 | −1.137 | 0.061 | −0.077 | −0.015 | −0.131 | −0.112 | 0.125 | −0.246 | −0.684 | −0.047 | 0.052 | −0.103 | −0.286 | 0.027 | −0.061 | −0.032 | −0.195 | –
CN(c1ncccc1CNc1nc(Nc2ccc3c(c2)CC(=O)N3)ncc1C(F)(F)F)S(C)(=O)=O [PF-562271] | −0.589 | −1.325 | −2.034 | −2.184 | −0.068 | −0.152 | −0.234 | −0.251 | −0.273 | −0.518 | −1.311 | −2.266 | −0.114 | −0.217 | −0.549 | −0.949 | −0.088 | −0.214 | −0.332 | −0.414 | –
CS(=O)(=O)c1cccc(CNc2nc(Nc3ccc4c(c3)CCC(=O)N4)ncc2C(F)(F)F)c1 [PF-573228] | 0.089 | −0.401 | −0.502 | −2.180 | 0.010 | −0.046 | −0.058 | −0.250 | 0.183 | −0.129 | −1.037 | −1.188 | 0.077 | −0.054 | −0.434 | −0.497 | 0.114 | 0.002 | −0.174 | −0.305 | –
OCCn1cc(-c2cnc3nnn(Cc4ccc5ncccc5c4)c3n2)cn1 [PF-04217903] | 0.742 | 1.404 | 1.060 | 0.617 | 0.085 | 0.161 | 0.122 | 0.071 | 0.326 | 0.616 | −0.122 | 0.276 | 0.136 | 0.258 | −0.051 | 0.116 | 0.110 | 0.265 | 0.049 | 0.127 | –
Cc1cnc(-c2cc(N3CCN(C(=O)CCS(C)(=O)=O)CC3)ncc2Cl)c(C)c1 [PF-5274857] | 0.683 | −0.256 | 0.094 | 0.642 | 0.078 | −0.029 | 0.011 | 0.074 | −0.242 | −0.096 | 0.131 | −0.183 | −0.101 | −0.040 | 0.055 | −0.076 | 0.187 | −0.034 | 0.042 | 0.076 | –
COc1ccccc1S(=O)(=O)Nc1ccc2c(c1)CN(C)C(=O)N2 [PFI-1 (PF-6405761)] | 0.538 | 0.691 | −0.852 | −0.573 | 0.062 | 0.079 | −0.098 | −0.066 | 0.340 | 0.931 | 0.770 | −0.929 | 0.142 | 0.390 | 0.322 | −0.389 | 0.061 | 0.104 | −0.117 | −0.194 | –
CC(C)CC(=O)Nc1[nH]nc2c1CN(C(=O)C1CCN(C)CC1)C2(C)C [PHA-793887] | 0.275 | 0.085 | −1.187 | −2.324 | 0.032 | 0.010 | −0.136 | −0.267 | – | – | – | – | 0.113 | 0.132 | −0.144 | −0.856 | 0.046 | 0.100 | −0.081 | −0.292 | –
COc1cc(OC)c(NC(=O)Nc2cc(C)on2)cc1Cl [PNU-120596] | 0.944 | −0.098 | 0.594 | −0.525 | 0.108 | −0.011 | 0.068 | −0.060 | −0.188 | 0.204 | 0.271 | 0.330 | −0.079 | 0.085 | 0.114 | 0.138 | 0.058 | 0.081 | 0.065 | −0.049 | –
CC(C)(C)n1nc(-c2ccc(Cl)cc2)c2c(N)ncnc21 [PP2] | 0.285 | 0.104 | 2.354 | −0.235 | 0.033 | 0.012 | 0.270 | – | −1.655 | 0.312 | −0.913 | −0.587 | −0.693 | 0.130 | −0.382 | – | 0.058 | 0.145 | 0.113 | – | Dose.FC.LYZ.NS [1, 7]: −0.027 log2 fold change; Dose.FC.CTG (ENR+CD organoids; [7]): −0.246 log2 fold change; Dose.FC.LYZ.S [2, 7]: 0.027 log2 fold change
